Source: patent publication US20220306659A1, “COMPOUND INHIBITING AND INDUCING DEGRADATION OF EGFR AND ALK” (BEIJING TIDE PHARMACEUTICAL CO., LTD., priority 2019, published 2022)

Experiments:
EGFR^L858R/T790M/C797S [1] = target: T1, EGFR^L858R/T790M/C797S (Homo sapiens, UniProt P00533, C797S/L858R/T790M); assay: EGFR inhibitory activity assay (TK-substrate-biotin/ATP, 665/615 ratio); assay type: biochemical; conditions: kinase inhibition
Procedure, shortened: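 HTRF kinase assay: enzyme preincubated with compound 10 min at room temperature, then reacted with biotinylated TK substrate and ATP for 40 min at room temperature.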

[2] = target: Ba/F3(EGFR^L858R/T790M/C797S) cells (Homo sapiens, UniProt P00533, T790M/C797S/L858R, cells depend on it); assay: Assay of activity on Ba/F3 cells (CTG, 72 h); assay type: cell-based; conditions: read-out: IC50 (nM) Ba/F3 (EGFR^L858R/T790M/C797S)
Procedure, shortened: (§1)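 Ba/F3 cells dependent on each EGFR triple mutant were exposed to 3-fold compound dilutions for 72 h at 37° C, 5% CO2, with CellTiter-Glo luminescence as the read-out.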

Ba/F3(EML4-ALK) cells = target: T2, Ba/F3(EML4-ALK) cells (Homo sapiens, UniProt Q9UM73); assay: Assay of activity on Ba/F3(EML4-ALK) cells (CTG, 72 h); assay type: cell-based; conditions: read-out: IC50 (nM) Ba/F3(EML4-ALK)
T2 construct: fused on or other part: Q9HC35 (Echinoderm microtubule-associated protein-like 4)
T2 sequence (Q9UM73 whole entry, change not shown, the tested form may be a part): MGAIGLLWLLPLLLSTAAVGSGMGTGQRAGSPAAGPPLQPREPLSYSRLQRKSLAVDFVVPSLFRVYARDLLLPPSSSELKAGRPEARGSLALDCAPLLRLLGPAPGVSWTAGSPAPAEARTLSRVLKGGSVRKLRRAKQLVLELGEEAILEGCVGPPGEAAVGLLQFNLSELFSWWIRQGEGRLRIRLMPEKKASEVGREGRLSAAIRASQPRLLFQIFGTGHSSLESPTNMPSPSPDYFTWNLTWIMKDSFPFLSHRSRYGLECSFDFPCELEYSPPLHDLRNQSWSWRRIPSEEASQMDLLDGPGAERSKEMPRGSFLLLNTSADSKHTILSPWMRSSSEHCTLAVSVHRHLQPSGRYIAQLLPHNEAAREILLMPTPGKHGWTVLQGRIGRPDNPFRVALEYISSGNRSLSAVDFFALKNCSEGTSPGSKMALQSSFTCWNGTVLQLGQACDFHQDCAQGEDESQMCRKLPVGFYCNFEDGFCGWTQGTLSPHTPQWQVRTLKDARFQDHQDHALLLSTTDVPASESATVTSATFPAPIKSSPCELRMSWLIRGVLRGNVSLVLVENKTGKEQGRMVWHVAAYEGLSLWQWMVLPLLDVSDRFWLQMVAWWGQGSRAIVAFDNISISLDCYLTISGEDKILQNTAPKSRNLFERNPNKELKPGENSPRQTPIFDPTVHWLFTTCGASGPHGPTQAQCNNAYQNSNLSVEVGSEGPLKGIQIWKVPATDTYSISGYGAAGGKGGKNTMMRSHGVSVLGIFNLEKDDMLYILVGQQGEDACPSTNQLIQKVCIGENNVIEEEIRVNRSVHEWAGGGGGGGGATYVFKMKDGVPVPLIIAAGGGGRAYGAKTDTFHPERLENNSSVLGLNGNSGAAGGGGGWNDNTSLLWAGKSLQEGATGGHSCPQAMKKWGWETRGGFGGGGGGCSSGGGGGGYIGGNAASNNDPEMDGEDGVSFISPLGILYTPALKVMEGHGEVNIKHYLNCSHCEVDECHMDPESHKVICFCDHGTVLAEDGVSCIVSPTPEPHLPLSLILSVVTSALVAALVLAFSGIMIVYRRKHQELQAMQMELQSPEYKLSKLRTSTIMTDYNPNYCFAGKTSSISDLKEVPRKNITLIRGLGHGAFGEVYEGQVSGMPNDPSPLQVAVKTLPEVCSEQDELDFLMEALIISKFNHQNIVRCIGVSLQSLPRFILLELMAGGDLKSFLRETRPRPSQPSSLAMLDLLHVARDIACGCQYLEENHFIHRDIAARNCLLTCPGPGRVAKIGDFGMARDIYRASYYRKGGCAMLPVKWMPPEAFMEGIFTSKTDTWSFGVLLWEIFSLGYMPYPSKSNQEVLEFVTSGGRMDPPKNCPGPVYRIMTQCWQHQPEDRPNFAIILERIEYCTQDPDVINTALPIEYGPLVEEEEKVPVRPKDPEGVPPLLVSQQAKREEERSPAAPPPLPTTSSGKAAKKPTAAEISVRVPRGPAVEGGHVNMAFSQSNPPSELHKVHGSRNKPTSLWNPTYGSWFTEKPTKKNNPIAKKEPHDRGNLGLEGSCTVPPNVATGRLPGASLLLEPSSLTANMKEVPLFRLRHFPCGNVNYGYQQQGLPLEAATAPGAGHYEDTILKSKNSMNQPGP
Procedure, shortened: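 Ba/F3(EML4-ALK) cells, 700 per well, were exposed to 3-fold serial compound dilutions for 72 h at 37° C, 5% CO2, and viability was then read by CTG luminescence.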

EGFR^L858R/T790M/C797S [3] = target: T1, EGFR^L858R/T790M/C797S; assay: Assay of activity of compounds to induce EGFR protein degradation (Alpha counts); assay type: cell-based; set-up: expressed in transfected cells; host or cells: Ba/F3; conditions: 24 h
Text: (§2) Assay of activity of compounds to induce EGFR^58R/IT790M/C797S and EGFR^Dell9/T790M/C797S protein degradation
(§3) In order to further explain the reason why the compounds of the present disclosure have inhibitory activity on Ba/F3(EGFR^58R/IT790M/C797S) and Ba/F3(EGFR^Dell9/T790M/C797S) cells, representative compounds C176 and C213 were selected to study the mechanism of action of the compounds, and observe their effects on EGFR^58R/IT790M/C797S and EGFR^Dell9/T790M/C797S protein levels.
(§4) Ba/F3(EGFR^58R/IT790M/C797S) and Ba/F3(EGFR^Dell9/T790M/C797S) cells were cultured according to the culture conditions recommended by ATCC, and analyzed by index.
(§5) Complete medium: 1640 medium, 10% FBS, 1× glutamine, 1× penicillin-streptomycin.
(§6) Culture conditions: incubated at 37° C., 95% air, 5% CO2 incubator.
(§7) (2) Compound stock solution: 10 mM stock solution in DMSO, stored at −20° C.
(§8) (3) Preparation of cell suspension:
(§9) The cells in the cell culture bottle were collected, and the cells with viability of >90% can be used in the assay. Cells were seeded in a 96-well plate with 40 μL cells, 1*10^5 cells/well.
(§10) Compound was diluted 3× with DMSO, starting at 1.0 mM (for EGFR^58R/IT790M/C797S assay) and 5 mM (for EGFR^Dell9/T790M/C797S assay), respectively, into 10 concentrations to prepare working solutions.
(§11) (5) Compound was pipetted into the 96-well plate to treat cells in a 37° C., 95% air, 5% CO2 incubator for 24 h.
(§12) 1) 1 μg/mL of EGF activated cells were treated for 10 min;
(§13) 2) After the compound treatment, lysis buffer was added to lyse cells; 10 μL of cell lysate was transferred to a 384-well plate; in addition, control lysate and negative control plus 5 μL of acceptor mix were added to the 384-well plate, and shaken on a shaker for 1-2 min;
(§14) 3) 5 μL of donor mix was added to each well; the 384-well plate was sealed, shaken on a shaker for 1-2 min, left in the dark at room temperature overnight, and read with an enzyme labeling instrument.
(§15) Alpha counts were fitted by logarithmic treatment of compound concentration with Graphpad Prism 8.0.
(§16) Y=Bottom+(Top−Bottom)/(1+10^((LogIC50−X)*HillSlope))
(§17) X: logarithm of compound concentration; Y: Alpha Counts.

[4] = target: Ba/F3(EGFR^Del19/T790M/C797S) cells (Homo sapiens, UniProt P00533, DEL746-750/T790M/C797S, cells depend on it); assay: Assay of activity on Ba/F3 cells (CTG, 72 h); assay type: cell-based; conditions: read-out: IC50 (nM) Ba/F3 (EGFR^Del19/T790M/C797S)
Procedure, shortened: as §1

EGFR^Del19/T790M/C797S = EGFR^Del19/T790M/C797S (Homo sapiens, UniProt P00533, C797S/DEL746-750/T790M); assay: Assay of activity of compounds to induce EGFR protein degradation (Alpha counts); assay type: cell-based; set-up: expressed in transfected cells; host or cells: Ba/F3; conditions: 24 h
Text: as §2, §3, §4, §5, §6, §7, §8, §9, §10, §11, §12, §13, §14, §15, §16, §17

IC50 (EGFR^L858R/T790M/C797S [1]) [nM]	GI50 [2] [nM]	GI50 (Ba/F3(EML4-ALK) cells) [nM]	DC50 (EGFR^L858R/T790M/C797S [3]; Ba/F3(EGFR^L858R/T790M/C797S) cells, 0.01 nM to 1000 nM, FIG. 1, read-out: DC50 of EGFR^L858R/T790M/C797S protein level) [nM]	effect on EGFR^L858R/T790M/C797S protein level (in words) (EGFR^L858R/T790M/C797S [3]; Ba/F3 cells, dose-dependent)	GI50 [4] [nM]	DC50 (EGFR^Del19/T790M/C797S; Ba/F3(EGFR^Del19/T790M/C797S) cells, 0.1 nM to 10000 nM, FIG. 2, read-out: DC50 of EGFR^Del19/T790M/C797S protein level) [nM]	effect on EGFR^Del19/T790M/C797S protein level (in words) (EGFR^Del19/T790M/C797S; Ba/F3 cells, dose-dependent)	SMILES
1 to 100	1 to 100	1 to 100	31.4	significantly reduces	–	–	–	COc1cc(N2CCC(N3CCN(CCOCC#Cc4cccc5c4CN(C4CCC(=O)NC4=O)C5=O)CC3)CC2)ccc1Nc1ncc(Cl)c(Nc2ccccc2P(C)(C)=O)n1 (stereo not drawn) [Compound C176, 3-(4-(3-(2-(4-(1-(4-((5-chloro-4-((2-(dimethylphosphoryl)phenyl)amino)pyrimidin-2-yl)amino)-3-methoxyphenyl)piperidin-4-yl)piperazin-1-yl)ethoxy)prop-1-yn-1-yl)-1-oxoisoindolin-2-yl)piperidine-2,6-dione]
–	1 to 100	–	–	–	1 to 100	11.3	significantly reduces	COc1cc(N2CCC3(CCN(CCCCCOc4cccc5c4CN(C4CCC(=O)NC4=O)C5=O)CC3)CC2)c(C)cc1Nc1ncc(Br)c(Nc2ccc3nccnc3c2P(C)(C)=O)n1 (stereo not drawn) [Compound C213, 3-(4-((5-(9-(4-((5-bromo-4-((5-(dimethylphosphoryl)quinoxalin-6-yl)amino)pyrimidin-2-yl)amino)-5-methoxy-2-methylphenyl)-3,9-diazaspiro[5.5]undecan-3-yl)pentyl)oxy)-1-oxoisoindolin-2-yl)piperidine-2,6-dione]
